Data published in patent US7943770B2, “Fused quinoline derivative and use thereof” (Takeda Pharmaceutical Company Limited, priority 2004, dated 2011).
Where a name gives a salt, the structure may show the parent alone.

Each compound was assayed against T1, hNK2 receptor (Homo sapiens, UniProt P21452) (assay: Radio-ligand ([125I]-NKA) receptor binding inhibitory activity using membrane fraction of hNK2 receptor-expressing CHO cell). Details: membrane fraction of hNK2 receptor-expressing CHO cells, 25° C., 30 min.
T1 construct: host or cells: CHO cells
T1 sequence (P21452 1-398): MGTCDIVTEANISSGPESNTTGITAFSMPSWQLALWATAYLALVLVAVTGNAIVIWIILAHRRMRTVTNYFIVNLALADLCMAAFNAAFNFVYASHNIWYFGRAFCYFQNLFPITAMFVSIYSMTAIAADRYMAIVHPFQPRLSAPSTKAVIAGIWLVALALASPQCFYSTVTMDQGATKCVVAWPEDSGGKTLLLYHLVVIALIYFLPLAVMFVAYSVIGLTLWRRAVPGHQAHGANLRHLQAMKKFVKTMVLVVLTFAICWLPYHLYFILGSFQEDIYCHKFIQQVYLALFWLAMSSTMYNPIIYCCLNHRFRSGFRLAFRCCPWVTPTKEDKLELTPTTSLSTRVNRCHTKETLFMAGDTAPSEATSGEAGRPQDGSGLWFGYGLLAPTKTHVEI
Summary of the method: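 Membranes from hNK2-expressing CHO cells (20 μg/mL suspension) incubated with test compound and [125I]-NKA ([…] solution as added) in Tris-HCl pH 7.4 with BSA, protease inhibitors, 3 mM MnCl2, 25 °C, 30 min. Bound radioactivity by GF/C filtration and scintillation; inhibition expressed relative to specific binding (total minus unlabeled-NKA non-specific).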

SMILES | IC50 [nM]
O=C(/C=C/c1cccs1)N[C@@H]1CCCC[C@@H]1C(=O)N1CC[C@@H]2[C@H](c3ncc[nH]3)Nc3ccccc3[C@@H]21 [Example 300, (2E)-N-((1R,2S)-2-{[(3aR,4R,9bR)-4-(1H-Imidazol-2-yl)-2,3,3a,4,5,9b-hexahydro-1H-pyrrolo[3,2-c]quinolin-1-yl]carbonyl}cyclohexyl)-3-thien-2-ylacrylamide] | < 1
O=C(Nc1ccccc1)N[C@@H]1CCCC[C@@H]1C(=O)N1CC[C@@H]2[C@H](C3CC3)Nc3ccccc3[C@@H]21 [Example 183, N-((1R,2S)-2-{[(3aR,4S,9bR)-4-Cyclopropyl-2,3,3a,4,5,9b-hexahydro-1H-pyrrolo[3,2-c]quinolin-1-yl]carbonyl}cyclohexyl)-N′-phenylurea] | < 1
COC[C@@H]1Nc2ccccc2[C@H]2[C@@H]1CCN2C(=O)[C@H]1CCCC[C@H]1NC(=O)c1cccc(N(C)C)c1 [Example 241, 3-(Dimethylamino)-N-((1R,2S)-2-{[(3aR,4R,9bR)-4-(methoxymethyl)-2,3,3a,4,5,9b-hexahydro-1H-pyrrolo[3,2-c]quinolin-1-yl]carbonyl}cyclohexyl)benzamide] | < 10
Cc1cc(C(=O)N[C@@H]2CCCC[C@@H]2C(=O)N2CC[C@@H]3[C@H](c4ncc[nH]4)Nc4ccccc4[C@@H]32)ccc1C#N [Example 309, 4-Cyano-N-((1R,2S)-2-{[(3aR,4R,9bR)-4-(1H-imidazol-2-yl)-2,3,3a,4,5,9b-hexahydro-1H-pyrrolo[3,2-c]quinolin-1-yl]carbonyl}cyclohexyl)-3-methylbenzamide] | < 1
CCOC(=O)CCNC(=O)N[C@@H]1CCCC[C@@H]1C(=O)N1CC[C@@H]2[C@H](c3ccccc3)Nc3ccccc3[C@@H]21 [Example 155, Ethyl N-{[((1R,2S)-2-{[(3aR,4R,9bR)-4-phenyl-2,3,3a,4,5,9b-hexahydro-1H-pyrrolo[3,2-c]quinolin-1-yl]carbonyl}cyclohexyl)amino]carbonyl}-beta-alaninate] | < 10
O=C(N[C@@H]1CCCC[C@@H]1C(=O)N1CC[C@@H]2[C@H](c3ncc[nH]3)Nc3ccccc3[C@@H]21)c1ccccc1 [Example 81, N-((1R,2S)-2-{[(3aR,4R,9bR)-4-(1H-imidazol-2-yl)-2,3,3a,4,5,9b-hexahydro-1H-pyrrolo[3,2-c]quinolin-1-yl]carbonyl}cyclohexyl)benzamide] | < 1
CNC[C@@H]1Nc2ccccc2[C@H]2[C@@H]1CCN2C(=O)[C@H]1CCCC[C@H]1NC(=O)c1ccccc1 (relative stereo) [Example 53, N-[(1R,2S)-2-({(3aR*,4R*,9bR*)-4-[(Methylamino)methyl]-2,3,3a,4,5,9b-hexahydro-1H-pyrrolo[3,2-c]quinolin-1-yl}carbonyl)cyclohexyl]benzamide dihydrochloride] | < 10
O=C(N[C@@H]1CCCC[C@@H]1C(=O)N1CC[C@@H]2[C@H](c3ccc[nH]3)Nc3ccccc3[C@@H]21)c1ccccc1 [Example 64, N-((1R,2S)-2-{[(3aR,4R,9bR)-4-(1H-Pyrrol-2-yl)-2,3,3a,4,5,9b-hexahydro-1H-pyrrolo[3,2-c]quinolin-1-yl]carbonyl}cyclohexyl)benzamide] | < 1
O=C(CCc1ccccc1)N[C@@H]1CCCC[C@@H]1C(=O)N1CC[C@@H]2[C@H](C3CC3)Nc3ccccc3[C@@H]21 [Example 181, N-((1R,2S)-2-{[(3aR,4S,9bR)-4-Cyclopropyl-2,3,3a,4,5,9b-hexahydro-1H-pyrrolo[3,2-c]quinolin-1-yl]carbonyl}cyclohexyl)-3-phenylpropanamide] | < 1
O=C(CCCCCBr)N[C@@H]1CCCC[C@@H]1C(=O)N1CC[C@@H]2[C@H](c3ccccc3)Nc3ccccc3[C@@H]21 [Example 109, 6-Bromo-N-((1R,2S)-2-{[(3aR,4R,9bR)-4-phenyl-2,3,3a,4,5,9b-hexahydro-1H-pyrrolo[3,2-c]quinolin-1-yl]carbonyl}cyclohexyl)hexanamide] | < 10
CC(C)CCNC(=O)N[C@@H]1CCCC[C@@H]1C(=O)N1CC[C@@H]2[C@H](c3ccccc3)Nc3ccccc3[C@@H]21 [Example 166, N-(3-Methylbutyl)-N′-((1R,2S)-2-{[(3aR,4R,9bR)-4-phenyl-2,3,3a,4,5,9b-hexahydro-1H-pyrrolo[3,2-c]quinolin-1-yl]carbonyl}cyclohexyl)urea] | < 1
COC[C@@H]1Nc2ccccc2[C@H]2[C@@H]1CCN2C(=O)[C@H]1CCCC[C@H]1NC(=O)c1ccc(N2N=C(C)CC2=O)cc1 [Example 252, N-((1R,2S)-2-{[(3aR,4R,9bR)-4-(Methoxymethyl)-2,3,3a,4,5,9b-hexahydro-1H-pyrrolo[3,2-c]quinolin-1-yl]carbonyl}cyclohexyl)-4-(3-methyl-5-oxo-4,5-dihydro-1H-pyrazol-1-yl)benzamide] | < 1
Cc1ccc(NC(=O)N[C@@H]2CCCC[C@@H]2C(=O)N2CC[C@@H]3[C@H](c4ccccc4)Nc4ccccc4[C@@H]32)cc1 [Example 138, N-(4-Methylphenyl)-N′-((1R,2S)-2-{[(3aR,4R,9bR)-4-phenyl-2,3,3a,4,5,9b-hexahydro-1H-pyrrolo[3,2-c]quinolin-1-yl]carbonyl}cyclohexyl)urea] | < 1
CCC[C@@H]1Nc2ccccc2[C@H]2[C@@H]1CCN2C(=O)[C@H]1CCCC[C@H]1NC(=O)c1ccc(OC)cc1 [Example 194, 4-Methoxy-N-((1R,2S)-2-{[(3aR,4S,9bR)-4-propyl-2,3,3a,4,5,9b-hexahydro-1H-pyrrolo[3,2-c]quinolin-1-yl]carbonyl}cyclohexyl)benzamide] | < 1
CCNC(=O)N[C@@H]1CCCC[C@@H]1C(=O)N1CC[C@@H]2[C@H](c3ccsc3)Nc3ccccc3[C@@H]21 [Example 187, N-Ethyl-N′-((1R,2S)-2-{[(3aR,4R,9bR)-4-(3-thienyl)-2,3,3a,4,5,9b-hexahydro-1H-pyrrolo[3,2-c]quinolin-1-yl]carbonyl}cyclohexyl)urea] | < 1
CCOCCNC(=O)N[C@@H]1CCCC[C@@H]1C(=O)N1CC[C@@H]2[C@H](c3ccccc3)Nc3ccccc3[C@@H]21 [Example 162, N-(2-Ethoxyethyl)-N′-((1R,2S)-2-{[(3aR,4R,9bR)-4-phenyl-2,3,3a,4,5,9b-hexahydro-1H-pyrrolo[3,2-c]quinolin-1-yl]carbonyl}cyclohexyl)urea] | < 10
O=C(NCC[C@@H]1Nc2ccccc2[C@H]2[C@@H]1CCN2C(=O)[C@H]1CCCC[C@H]1NC(=O)c1ccccc1)OCc1ccccc1 [Example 68, Benzyl 2-((3aR,4S,9bR)-1-{[(1S,2R)-2-(benzoylamino)cyclohexyl]carbonyl}-2,3,3a,4,5,9b-hexahydro-1H-pyrrolo[3,2-c]quinolin-4-yl)ethylcarbate] | < 10
COC[C@@H]1Nc2ccccc2[C@H]2[C@@H]1CCN2C(=O)[C@H]1CCCC[C@H]1NC(=O)c1ccc(OC(F)F)cc1 [Example 234, 4-(Difluoromethoxy)-N-((1R,2S)-2-{[(3aR,4R,9bR)-4-(methoxymethyl)-2,3,3a,4,5,9b-hexahydro-1H-pyrrolo[3,2-c]quinolin-1-yl]carbonyl}cyclohexyl)benzamide] | < 1
O=C(N[C@@H]1CCCC[C@@H]1C(=O)N1CC[C@@H]2[C@H](c3ncc[nH]3)Nc3ccccc3[C@@H]21)c1cccc(C(F)(F)F)c1 [Example 305, N-((1R,2S)-2-{[(3aR,4R,9bR)-4-(1H-Imidazol-2-yl)-2,3,3a,4,5,9b-hexahydro-1H-pyrrolo[3,2-c]quinolin-1-yl]carbonyl}cyclohexyl)-3-(trifluoromethyl)benzamide] | < 1
O=C(N[C@@H]1CCCC[C@@H]1C(=O)N1CC[C@@H]2[C@H](c3ccccc3)Nc3ccccc3[C@@H]21)c1cccs1 [Example 89, N-((1R,2S)-2-{[(3aR,4R,9bR)-4-Phenyl-2,3,3a,4,5,9b-hexahydro-1H-pyrrolo[3,2-c]quinolin-1-yl]carbonyl}cyclohexyl)thiophene-2-carboxamide] | < 10
O=C(N[C@@H]1CCCC[C@@H]1C(=O)N1CC[C@@H]2[C@H](c3ccoc3)Nc3ccccc3[C@@H]21)c1ccccc1 [Example 63, N-((1R,2S)-2-{[(3aR,4R,9bR)-4-(3-Furyl)-2,3,3a,4,5,9b-hexahydro-1H-pyrrolo[3,2-c]quinolin-1-yl]carbonyl}cyclohexyl)benzamide] | < 1
O=C(N[C@@H]1CCCC[C@@H]1C(=O)N1CC[C@H]2[C@@H](c3ncc[nH]3)Nc3ccccc3[C@H]21)c1ccccc1 [Example 321, N-((1R,2S)-2-{[(3aS,4S,9bS)-4-(1H-Imidazol-2-yl)-2,3,3a,4,5,9b-hexahydro-1H-pyrrolo[3,2-c]quinolin-1-yl]carbonyl}cyclohexyl)benzamide] | < 10
CCOC(=O)c1ccc(NC(=O)N[C@@H]2CCCC[C@@H]2C(=O)N2CC[C@@H]3[C@H](c4ccccc4)Nc4ccccc4[C@@H]32)cc1 [Example 159, Ethyl 4-({[((1R,25)-2-{[(3aR,4R,9bR)-4-phenyl-2,3,3a,4,5,9b-hexahydro-1H-pyrrolo[3,2-c]quinolin-1-yl]carbonyl}cyclohexyl)amino]carbonyl}amino)benzoate] | < 10
CCC[C@@H]1Nc2ccccc2[C@H]2[C@@H]1CCN2C(=O)[C@H]1CCCC[C@H]1NC(=O)Nc1ccccc1 [Example 195, N-Phenyl-N′-((1R,2S)-2-{[(3aR,4S,9bR)-4-propyl-2,3,3a,4,5,9b-hexahydro-1H-pyrrolo[3,2-c]quinolin-1-yl]carbonyl}cyclohexyl)urea] | < 1
